Reference: EP0341300B1, “STIMULATION OF STEM CELL GROWTH BY THE BRYOSTATINS” (priority 1987, dated 1989)
“Also recorded” adds a separate entry of the source.

Legend:
[1] = tested on: light-density, adherence-depleted normal human bone marrow cells; test: Granulocyte-macrophage colony formation (CFU-GM) in agar culture; type: cell-based
Description: For determining effective concentrations of bryostatins for granulocyte and macrophage colony formation, light density, adherence-depleted human bone marrow cells can be obtained. The cells can be suspended in a suitable medium, such as supplemented McCoy's 5A medium containing 0.3% agar and plated in 35 mm petri dishes as described in Pike et al, Journal of Cell Physiology, Vol. 76, pp. 77-83, 1970. For the bryostatins which have been tested and found to be effective, i.e., 1, 3, 8 and 9, maximum stimulatory concentrations are between about 10⁻⁷M and 10⁻¹⁰M.
Granulocyte-macrophage colony-forming unit (CFU-GM) colonies were enumerated from light-density, adherence-depleted normal human bone marrow cells. Cells were suspended in supplemented McCoy's 5A medium containing 0.3% agar and plated in 35-mm Petri dishes as described in Pike et al, J. Cell Physiol., Vol. 76, pp. 77-83, 1970. Colonies were enumerated following incubation of bone marrow with cells with rHGM-CSF at 50 ng/ml (Genetics Institute) or bryostatin 1 (●) bryostatin 3(o), bryostatin 8(♢), bryostatin 9(+), or bryostatin 13 (▲) at the concentrations indicated. After 14 days of culture at 37°C in a humidified atmosphere containing 7.5% CO₂, colonies of greater or equal to 50 cells were scored. Representative results from one of several experiments are reported as the mean colony number from quadruplicate samples. SEM is within 10% of the mean number.

[2] = tested on: early BFU-E and late CFU-E human erythroid progenitors; test: Erythroid progenitor assay, plasma-clot method with erythropoietin; type: cell-based; details: plasma clots, optimal erythropoietin
Description: Amounts of bryostatin which are effective for stimulating hematopoiesis or neutrophil and other immune regulatory cell activation, can be determined using any of the assays known in the art. For example, early and late erythrocyte progenitors can be enumerated using the plasma clot method described in McLeod et al, Blood, Vol. 44, p. 517, 1974. Stimulation of such erythrocyte progenitors requires the presence of erythropoietin.
Assays for both early (BFU-E) and late (CFU-E) progenitors were enumerated as described in McLeod et al, Blood, Vol. 44, p. 517 (1974) using the plasma-clot method and optimal concentrations of erythropoietin. Bryostatin 1 stimulated both early BFU-E and late CFU-E human erythroid progenitors growth in plasma clots. The maximal stimulatory concentration was between 1 and 10 pM, with an inhibitory effect noted at concentrations above 1 nM.

K562 target cells = test: Activated neutrophil cytotoxicity, 51Cr release; type: cell-based, human; details: for % specific lysis, 7.5 / % specific lysis, column 15 / % specific lysis, column 30: Bryostatin alone (no neutrophils)
Description: Alternatively, neutrophil activation can be assayed using a cytoxicity assay. Purified neutrophils can be incubated at a density of about 3x10⁶ cells per ml with various concentrations of bryostatin. The cells can be washed and added to radiolabelled target cells. K562 tumor cells and ⁵¹ Cr-label can be used to measure cytoxicity. The target cells are preincubated with the radiolabelled substance to effect uptake of the radiolabel. The target cells can be mixed with the neutrophils at various effector to target cell ratios, such as between about 50:1 and 5:1, Release of label from the target cells can be measured either by assaying the supernatant or the cells after centrifugation. Of course, other methods known in the art, such as using other assays of immune regulatory cell cytotoxicity can be used. Bryostatin 1 has activity toward neutrophils at about 10⁻¹⁰ to 10⁻⁷M, with a maximum activation effect on neutrophil cytotoxicity of K562 target cells at a concentration of about 10⁻⁷M.
Furthermore, activation of neutrophil cytotoxicity, as measured by killing of ⁵¹Cr-labeled K562 tumor target cells was also sitmulated by bryostatin 1 (Table 1). Neutrophils were purified as described above. Neutrophils were incubated at a density of 3 x 10⁶ cells per ml first with various concentrations of bryostatin 1 (0.1 uM to 0.1 nM), rhGM-CSF (50 ng/ml), or in medium alone for 2 hr. Following two washes, the cells were added to the ⁵¹Cr-labeled K562 target cells at effector/target cell ratios of 30:1, 15:1, or 7.5:1 as indicated. Control plates containing ⁵¹Cr-labeled K562 cells and either bryostatin or medium alone were evaluated to determine the spontaneous release of isotope. The plates containing the cells were centrifuged at 250 x g for 2 min and then incubated for 3 hrs at 37°C. One hundred microliters of the supernatant was harvested from each well, and the amount of radioactivity present was determined in a gamma scintillation counter. The maximum release of ⁵¹Cr was determined by assaying supernatant obtained from wells in which the cells were completely lysed with 6 M HCl.
Assessment of neutrophil cytotoxicity induced by bryostatin 1. K562 cells were labeled with […] and adjusted to a concentration of 10³ cells per ml in RPMI 1640 medium. Activated neutrophil cytotoxicity was determined. The results are expressed as the percentage of specific isotope released at the indicated effector/target cell ratio calculated as follows: % specific lysis = [(mean cpm of sample - mean cpm spontaneously released)/(mean cpm maximal -mean cpm spontaneously released)] x 100 [formula] . [formula] Maximum induced cpm released as 7364 ± 149. The maximum mean % specific lysis from triplicate determinations from a representative experiment is shown.

[3] = tested on: Normal human peripheral blood neutrophils; test: Neutrophil chemiluminescence with luminol; type: cell-based; details: 15 min incubation, then 10 uM luminol; rhGM-CSF at 50 ng/ml
Description: To determine the effective amount of bryostatin for neutrophil activation, normal human peripheral blood neutrophil cells can be purified on a density gradient such as a Ficoll gradient. Other immune regulatory cells, such as T-lymphocytes and macrophages can be isolated by standard and known techniques. The neutrophils can be suspended in Dulbecco's phosphate-buffered saline supplemented with calcium and magnesium. One way to monitor neutrophil activation is to observe chemiluminescence. The neutrophils can be incubated for about fifteen minutes with the bryostatin. Then luminol (5-amino-2-3-dihydro-1, 4-phthalazinedione) can be added to a concentration of about 10 uM. Chemiluminescence can be measured in a luminometer as described in Allen et al, Biochemistry and Biophysics Research Communications, Vol. 69, pp. […], 1976.
Normal human peripheral blood neutrophils were highly purified on a double Ficoll density gradient and suspended in Dulbecco's phosphate-buffered saline supplemented with Ca²⁺ and Mg²⁺. First, substances to be tested were incubated with the neutrophils for 15 min. At this point 10 uM luminol (5-amino-2, 3-dihydro-1, 4-phtyalazinedione) was added to each sample. The generation of chemiluminescence was measured in a luminometer at 1.25 min intervals for up to 20 min.

normal human bone marrow = test: Clone transfer assay (growth of transferred clones in secondary plates); type: cell-based; details: primary culture 10 nM bryostatin 1 for 4 days; secondary plates bryostatin 1 10 nM or rhGM-CSF 50 ng/ml, 10 further days
Description: Assays were performed essentially as described in Metcalf et al, Blood, Vol. 67, pp. 37-45, 1986. Briefly, cultures of normal human bone marrow were initiated in medium containing 10 nM bryostatin 1. Following 4 days of growth, clones of 4-8 cells were carefully removed using a glass pipette to avoid contamination by surrounding cells and transferred to secondary plates containing either rhGM-CSF (50 ng/ml) or bryostatin 1 (10 nM) as the source of CSF). After an additional 10 days of culture, the number of clones that had proliferated to form a colony of 40 cells or more was determined. Further growth was not observed in colonies transferred to plates containing no added CSF. (See Figure 3.)
Each symbol (●) represents a colony. Its height in each column is proportional to the number of cells in that colony. The data directly above sections G of the column represent colonies composed entirely of granulocytic cells. The data above sections GM in the column represent colonies composed of both granulocytic and monocytic cells. No colonies in secondary plates were detected that were composed of macrophage-monocyte cells only. The numerator in the fraction at the top of each column represents the number of colonies that developed in the secondary plate, and the denominator represents the total number of clones transferred.

[4] = tested on: multi-potential hematopoietic progenitors; test: Continuous 7-day subcutaneous infusion by osmotic micropump in mice; type: in vivo, BDF₁ mice
Description: A dose-response stimulatory effect on multi-potential hematopoietic progenitors was noted. The administration of 144 ug/kg/d (max. dose) increased CFU-S, CFU-GM and BFU-E compared to control animals infused with vehicle alone. CFU-S from spleen cells of treated animals were increased 2-fold (19 vs. 39 colonies per 10⁶ cells injected), while bone marrow CFU-S was not altered. Likewise, CFU-GM colonies from spleen cells were increased 3.6-fold (52 vs. 188 per 10⁶ cells injected), and increased 2-fold (73 vs. 150 per 10⁵ nuc. cells) in bone marrow.

[5] = tested on: P388 lymphocytic leukemia line; details: reported by others (Pettit et al); test system not named; cited from earlier work
[6] = neutrophils plus 10^-7M, 0.1 µM
[7] = neutrophils plus 10^-8M, 0.01 µM
[8] = neutrophils plus 10^-9M, 0.001 µM
[9] = neutrophils plus 10^-10M, 0.0001 µM

Q: Which “granulocyte-macrophage colony stimulating activity (in words)” value ([1]; 14 days of culture) does the source give for `CCC/C=C/C=C/C(=O)O[C@H]1[C@H]2C=C3C[C@H]([C@@H](C)O)OC(=O)C[C@H](O)C[C@@H]4C[C@H](OC(C)=O)C(C)(C)[C@](O)(C[C@@H]5C/C(=C\C(=O)OC)C[C@H](/C=C/C(C)(C)[C@]1(OC(=O)C2)O3)O5)O4` [Bryostatin 3, bryostatin 3] here?
A: clearly less potent than bryostatin 1 or 8

Q: For bryostatin 1, which colony morphology ([1]; 7 and 14 days of culture) is on record?
A: primarily mixed granulocyte-macrophage and pure granulocyte colonies

Q: What about the “lowest concentration at which colony stimulating activity was observed” value ([1]; 14 days of culture) of the same compound?
A: 10 pM

Q: What about the “maximal effective concentration for stimulation of CFU-GM” value ([1]; 14 days of culture, colonies of >= 50 cells scored) of the same compound?
A: 1 to 10 nM

Q: And the “concentrations with an inhibitory effect on erythroid progenitors” value [2]?
A: above 1 nM

Q: What about the “concentration of maximum activation effect on neutrophil cytotoxicity of K562 target cells” value (K562 target cells) of the same compound?
A: about 10⁻⁷ M

Q: What about the “% specific lysis, 7.5” value (K562 target cells; 10^-7M, 0.1 µM) of the same compound?
A: -0.6%

Q: What about the “% specific lysis, column 15” value (K562 target cells; 10^-7M, 0.1 µM) of the same compound?
A: 0.3%

Q: And the “% specific lysis, column 30” value (K562 target cells; 10^-7M, 0.1 µM)?
A: 1.5%

Q: And the “% specific lysis, 7.5” value (K562 target cells; 10^-8M, 0.01 µM)?
A: 0.3%

Q: And the “% specific lysis, column 15” value (K562 target cells; 10^-8M, 0.01 µM)?
A: 1.0%

Q: And the “% specific lysis, column 30” value (K562 target cells; 10^-8M, 0.01 µM)?
A: 0.9%

Q: And the “% specific lysis at effector/target ratio 7.5” value (K562 target cells; [6])?
A: 7.8%

Q: What about the “% specific lysis at effector/target ratio 15” value (K562 target cells; [6]) of the same compound?
A: 18.1%

Q: And the “% specific lysis at effector/target ratio 7.5” value (K562 target cells; [7])?
A: 0%

Q: What about the “% specific lysis at effector/target ratio 15” value (K562 target cells; [7]) of the same compound?
A: 2.4%

Q: And the “% specific lysis at effector/target ratio 30” value (K562 target cells; [7])?
A: 8.4%

Q: What about the “% specific lysis at effector/target ratio 7.5” value (K562 target cells; [8]) of the same compound?
A: 0%

Q: What about the “% specific lysis at effector/target ratio 15” value (K562 target cells; [8]) of the same compound?
A: 1.8%

Q: What about the “% specific lysis at effector/target ratio 30” value (K562 target cells; [8]) of the same compound?
A: 0.9%

Q: What about the “% specific lysis at effector/target ratio 7.5” value (K562 target cells; [9]) of the same compound?
A: 0.9%

Q: And the “% specific lysis at effector/target ratio 15” value (K562 target cells; [9])?
A: 1.0%

Q: What about the “% specific lysis at effector/target ratio 30” value (K562 target cells; [9]) of the same compound?
A: -0.8%

Q: And the “activation of neutrophil chemiluminescence” value [3]?
A: potent activator

Q: And the “growth of transferred clones on secondary plates” value (normal human bone marrow)?
A: produced full-size colonies

Q: And the “CFU-GM colonies from spleen cells” value ([4]; 144 ug/kg/d, 7 days)?
A: 188 per 10⁶ cells injected

Q: And the “CFU-GM colonies in bone marrow” value ([4]; 144 ug/kg/d, 7 days)?
A: 150 per 10⁵ nuc. cells

Q: What about the “CFU-S from spleen cells” value ([4]; 144 ug/kg/d, 7 days) of the same compound?
A: 39 colonies per 10⁶ cells injected

Q: And the “Erythroid BFU-E colonies from spleen cells” value ([4]; 144 ug/kg/d, 7 days)?
A: 58 per 10⁶ cells

Q: And the “bone marrow BFU-E progenitors” value ([4]; 144 ug/kg/d, 7 days)?
A: no change

Q: What about the “bone marrow CFU-S” value ([4]; 144 ug/kg/d, 7 days) of the same compound?
A: not altered

Q: What about the “increase of CFU-GM colonies from spleen cells vs. vehicle control” value ([4]; 144 ug/kg/d, 7 days) of the same compound?
A: 3.6 fold

Q: And the “increase of CFU-GM colonies in bone marrow vs. vehicle control” value ([4]; 144 ug/kg/d, 7 days)?
A: 2 fold

Q: What about the “increase of CFU-S from spleen cells vs. vehicle control” value ([4]; 144 ug/kg/d, 7 days) of the same compound?
A: 2 fold

Q: And the “increase of erythroid BFU-E colonies from spleen cells vs. vehicle control” value ([4]; 144 ug/kg/d, 7 days)?
A: 2 fold

Q: And the “differential peripheral white blood cell, hemocrit, bone marrow cellularity or spleen weights” value ([4]; 7-day infusion)?
A: not accompanied by a significant change

Q: And the “major organ toxic effects” value ([4]; infused for 7 days, any of the doses employed)?
A: no major organ toxic effects

Q: For bryostatin 8, which “lowest concentration at which colony stimulating activity was observed” value ([1]; 14 days of culture) is on record?
A: 10 pM

Q: For `CCCC(=O)O[C@H]1C[C@H]2C[C@@H](O)CC(=O)O[C@@H]([C@H](C)O)C[C@@H]3C/C(=C\C(=O)OC)C[C@@](O)(O3)C(C)(C)/C=C/[C@H]3C/C(=C\C(=O)OC)C[C@@H](C[C@](O)(O2)C1(C)C)O3` [Bryostatin 13, bryostatin 13], which “granulocyte-macrophage colony stimulating activity (in words)” value ([1]; 14 days of culture) is on record?
A: totally inactive; also recorded: completely inactive

Q: And the “activation of neutrophil chemiluminescence” value [3]?
A: not

Q: What about the antineoplastic activity [5] of the same compound?
A: retain potent antineoplastic activity

Q: Which “granulocyte-macrophage colony stimulating activity (in words)” value ([1]; 14 days of culture) does the source give for `CCCC(=O)O[C@H]1/C(=C/C(=O)OC)C[C@H]2C[C@H]([C@@H](C)O)OC(=O)C[C@H](O)C[C@@H]3C[C@H](OC(C)=O)C(C)(C)[C@](O)(C[C@@H]4C/C(=C/C(=O)OC)C[C@H](/C=C/C(C)(C)[C@]1(O)O2)O4)O3` [Bryostatin 9, bryostatin 9] here?
A: much less potent stimulator; also recorded: weaker stimulator; also recorded: only a weak stimulator
